{
  "source": "patent US20250275940A1",
  "about": "“PTEROSTILBENE AND SILIBININ FOR PREVENTING, AMELIORATING OR REDUCING RADIATION-INDUCED DISEASES” (UNIVERSITAT DE VALÈNCIA, priority 2021, published 2025)",
  "key": {"[1]": {"details": "background statement; cited from earlier work"}, "[2]": {"assay": "Plasma and extravascular levels of pterostilbene after oral administration", "type": "in vivo", "details": "mice, 200 mg Pter/kg b.w. oral", "description": "Plasma and extravascular levels of pterostilbene after its oral administration to mice were studied. Mice were treated with 200 mg Pter/kg b.w. A group of 4-5 animals was sacrificed per each time point. Pter was dissolved in 2-hydroxypropyl-b-cyclodextrin, then suspended in 0.3% carboxymethylcellulose. Nondetectable=n.d. * P<0.1 comparing data obtained at 10-1440 min versus those found at 5 min."}, "[3]": {"tested_on": "Swiss albino mice subjected to whole-body γ irradiation", "assay": "Survival of mice subjected to whole-body γ irradiation (LD50/30)", "type": "in vivo", "details": "6 days after γ radiation (LD50/30), compounds administered orally, FIG. 2A", "source_text": "Swiss albino mice (male, 9-10 weeks old, 30-32 g) were obtained from Charles River Laboratories (Wilmington, MA). This strain is among the most common used in radiation studies (Williams 2010). Mice were fed with a nutritionally complete diet (standard diet, SD) before irradiation. This was A03 from Panlab (Barcelona, Spain), which has 3,200 kcal/kg and the following nutritional composition: crude protein, 23.5%; crude fat, 4.3%; crude fiber, 3.7%; and carbohydrates, 51.1%; vitamins and minerals were provided as in the NIH-7 open formula for rat and mouse. This diet meets the dietary allowances recommended for adult mice by the American Institute of Nutrition. The animals were fed ad libitum and kept in individual metabolic cages, in which body weight and food ingestion were monitored daily. The animal room was maintained at 22° C. on a 12 h light/12 h dark cycle. Ad libitum intake of drinking water was also allowed. Care of irradiated mice followed the recommendation of the Robert Wood Johnson Medical School (Piscataway, NJ) for mouse total body irradiation (policy 15), which includes: a) use of antibiotics in the drinking water (134 mg ampicillin/kg/day, 40 mg baytril/kg/day, and 220/42 mg sulfamethoxazole/trimethoprim/kg/day), b) making drinking water readily available, c) Napa nectar Systems Engineering Lab Group Inc., Napa, CA) provided on the bottom of the cage during the first 14 days and replaced daily, d) provision of softened food served in a small Petri dish on the cage floor, e) completely sterile environment (cage, food, and water) to avoid potential immunosuppression-associated infections. A free-standing wheel inside the cage was also included to facilitate the physical exercise of the animals. All experiments were started at 10.00 h to minimize possible circadian variations. Procedures involving animals were in compliance with international laws and policies (EEC Directive 86/609, OJ L 358. 1, Dec. 12, 1987; and NIH Guide for the Care and Use of Laboratory Animals, NIH Publ. No. 85-23, 1985). Mice were subjected to g-radiation (^137Cs) (total body irradiation, TBI) in a BIOBEAM 8000 (Gamma-Service Medical GmbH, Leipzig, Germany). Single fraction radiotherapy, at total doses ranging from approx. 5.0 to 10.0 Gy, was administered at a rate of approx. […]. The irradiation distance from the source was limited to 12 cm. Radiation dosimetry was controlled using alanine dosimeters from Bruker (Billerica, MA) with dosimetry variation of +/−0.09 Gy. […] NR (nicotinamide riboside, 3-aminocarbonyl-1-b-D-ribofuranosyl-pyridinium, Elysium Health, Inc., New York, NY) was dissolved in vaccination-grade water, and the pH of the solution neutralized (pH 7.0) before oral administration (185 mg/kg×day, Obrador 2020). FSL-1 (InvivoGen, San Diego, CA) was resuspended in sterile vaccination-grade water, and administered IP (0.25 mg/kg×day, the volume administered was of […] depending on the weight of the mouse, as recommended by Kurkjian 2017). Pharmaceutical grade amifostine (Ethyol) was obtained from Cumberland Pharmaceuticals (Nashville, TN) as 500 mg sterile lyophilized powder vial, and reconstituted with physiological saline prior to use.\nFirst, the effects of γ radiation and mice survival were studied. […] Mice received whole-body γ radiation (one single dose; ^137Cs, 0.5-0.6 Gy/min; Biobeam 8000, GSM GmbH). One Gy=absorption of 1 J of energy/kg of matter.\nNext, the thirty-days survival of mice treated with γ rays (LD50/30) and pterostilbene (PT) was analysed (FIG. 1B)."}, "[4]": {"assay": "PT, SIL and NAD+ levels in circulating blood", "details": "treated and irradiated mice, FIG. 10A", "description": "Briefly, samples were analyzed through HPLC (Ultimate 3000, Thermo Fisher Scientific) and MS/MS (Waters TQ detector triple quadrupole) systems on a Hypurity™ C18 column (50×4.6 mm) using an injection volume of 5 μL. The mobile phases consisted of water (A) and acetonitrile (B). […] MS/MS data acquisition was performed under negative electrospray ionization mode. […] The fragmentary voltage was 150 V, and the collision energy 15 eV. Tissue sample preparation was as described for determination of PTER levels (above).\nWhole-blood samples (0.5 ml) were collected in sodium citrate tubes at 4° C. Then a whole-blood aliquot of 0.1 ml was transferred to a cryovial containing 0.9 ml of 0.5 M ice-cold perchloric acid to lyse all blood cells. Samples were centrifuged at 10,000 g×10 min (4° C.). Supernatants were stored at −80° C. until analyzed."}, "[5]": {"tested_on": "Swiss albino mice subjected to whole-body γ irradiation", "assay": "Survival of mice subjected to whole-body γ irradiation (LD50/30)", "type": "in vivo", "details": "dose of 100 mg/kg, orally once per day, 5 days before and 2 days after γ irradiation (7.2 Gy), FIG. 1B"}, "[6]": {"details": "Swiss albino, mouse, brain, 200 mg/kg b.w., read-out: Pter in Brain"}, "[7]": {"details": "Swiss albino, mouse, kidney, 200 mg/kg b.w., read-out: Pter in Kidney"}, "[8]": {"details": "Swiss albino, mouse, liver, 200 mg/kg b.w., read-out: Pter in Liver"}, "[9]": {"details": "Swiss albino, mouse, lung, 200 mg/kg b.w., read-out: Pter in Lung"}, "[10]": {"details": "Swiss albino, mouse, plasma, 200 mg/kg b.w., read-out: Pter in Plasma"}},
  "note": "Like-named read-outs stand apart in the source and are kept apart here.",
  "data": [
    {"smiles": "COc1cc(/C=C/c2ccc(O)cc2)cc(OC)c1", "note": "[PT, 3,5-dimethoxy-4′-hydroxystilbene]", "values": [
      {"measurement": "potency as antifungal agent relative to Resveratrol", "setting": "[1]", "result": "60-100 times"},
      {"measurement": "concentration at 5 min", "setting": "[2]; [6]", "result": "2 ± 1", "unit": "µM"},
      {"measurement": "concentration at 10 min", "setting": "[2]; [6]", "result": "6 ± 2", "unit": "µM"},
      {"measurement": "concentration at 30 min", "setting": "[2]; [6]", "result": "10 ± 3", "unit": "µM"},
      {"measurement": "concentration at 60 min", "setting": "[2]; [6]", "result": "24 ± 7", "unit": "µM"},
      {"measurement": "concentration at 120 min", "setting": "[2]; [6]", "result": "14 ± 4", "unit": "µM"},
      {"measurement": "concentration at 240 min", "setting": "[2]; [6]", "result": "8 ± 3", "unit": "µM"},
      {"measurement": "concentration at 480 min", "setting": "[2]; [6]", "result": "3 ± 1", "unit": "µM"},
      {"measurement": "concentration at 5 min", "setting": "[2]; [7]", "result": "1 ± 0.5", "unit": "µM"},
      {"measurement": "concentration at 10 min", "setting": "[2]; [7]", "result": "4 ± 2", "unit": "µM"},
      {"measurement": "concentration at 30 min", "setting": "[2]; [7]", "result": "6 ± 3", "unit": "µM"},
      {"measurement": "concentration at 60 min", "setting": "[2]; [7]", "result": "10 ± 4", "unit": "µM"},
      {"measurement": "concentration at 120 min", "setting": "[2]; [7]", "result": "8 ± 2", "unit": "µM"},
      {"measurement": "concentration at 240 min", "setting": "[2]; [7]", "result": "2 ± 0.5", "unit": "µM"},
      {"measurement": "concentration at 5 min", "setting": "[2]; [8]", "result": "3 ± 1", "unit": "µM"},
      {"measurement": "concentration at 10 min", "setting": "[2]; [8]", "result": "8 ± 3", "unit": "µM"},
      {"measurement": "concentration at 30 min", "setting": "[2]; [8]", "result": "11 ± 3", "unit": "µM"},
      {"measurement": "concentration at 60 min", "setting": "[2]; [8]", "result": "17 ± 5", "unit": "µM"},
      {"measurement": "concentration at 120 min", "setting": "[2]; [8]", "result": "12 ± 4", "unit": "µM"},
      {"measurement": "concentration at 240 min", "setting": "[2]; [8]", "result": "7 ± 2", "unit": "µM"},
      {"measurement": "concentration at 480 min", "setting": "[2]; [8]", "result": "1 ± 0.5", "unit": "µM"},
      {"measurement": "concentration at 5 min", "setting": "[2]; [9]", "result": "7 ± 2", "unit": "µM"},
      {"measurement": "concentration at 10 min", "setting": "[2]; [9]", "result": "15 ± 6", "unit": "µM"},
      {"measurement": "concentration at 30 min", "setting": "[2]; [9]", "result": "23 ± 5", "unit": "µM"},
      {"measurement": "concentration at 60 min", "setting": "[2]; [9]", "result": "35 ± 8", "unit": "µM"},
      {"measurement": "concentration at 120 min", "setting": "[2]; [9]", "result": "21 ± 4", "unit": "µM"},
      {"measurement": "concentration at 240 min", "setting": "[2]; [9]", "result": "12 ± 3", "unit": "µM"},
      {"measurement": "concentration at 480 min", "setting": "[2]; [9]", "result": "2 ± 1", "unit": "µM"},
      {"measurement": "concentration at 5 min", "setting": "[2]; [10]", "result": "5 ± 2", "unit": "µM"},
      {"measurement": "concentration at 10 min", "setting": "[2]; [10]", "result": "18 ± 4", "unit": "µM"},
      {"measurement": "concentration at 30 min", "setting": "[2]; [10]", "result": "55 ± 9", "unit": "µM"},
      {"measurement": "concentration at 60 min", "setting": "[2]; [10]", "result": "98 ± 17", "unit": "µM"},
      {"measurement": "concentration at 120 min", "setting": "[2]; [10]", "result": "46 ± 12", "unit": "µM"},
      {"measurement": "concentration at 240 min", "setting": "[2]; [10]", "result": "21 ± 6", "unit": "µM"},
      {"measurement": "concentration at 480 min", "setting": "[2]; [10]", "result": "14 ± 5", "unit": "µM"},
      {"measurement": "concentration at 720 min", "setting": "[2]; Swiss albino, mouse, plasma, 200 mg/kg b.w., 720 min", "result": "1 ± 0.5", "unit": "µM"},
      {"measurement": "time after administration at which Pterostilbene levels peak", "setting": "[2]; all tissues studied", "result": 60, "unit": "min"},
      {"measurement": "survival", "setting": "[3]", "result": "around 100%"},
      {"measurement": "PT levels in circulating blood, 30 min vs 120 min", "setting": "[4]", "result": "higher 30 min after"},
      {"measurement": "effect on improving survival (60 days) among doses", "setting": "[5]", "result": "best effect on improving survival"}
    ]}
  ]
}
